In PubChem BioAssay AID248 (DTP/NCI, 2004):
Where “and” joins values, the source holds several entries; their conditions need not be identical. Equal values may be shown once. Inconclusive results and toxic doses are left out. No stated cut-off is given here; in the data, active means T/C of 150% or more; inactive means T/C below 125%.

System: L1210 leukemia ip in BDF1 mice, survival T/C
Experiment: NCI In Vivo Anticancer Drug Screen. Data for tumor model L1210 Leukemia (intraperitoneal) in B6D2F1 (BDF1) mice
Details: endpoint: mean survival time, higher = longer survival
Outline: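 Each compound was tested against a transplantable tumor grown in mice. The endpoint was survival, with treated animals benchmarked against vehicle controls as a simple ratio.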

[1] = dose: 25.0 mg/kg/injection, schedule: Q01DX009 (ip), vehicle: saline
[2] = dose: 50.0 mg/kg/injection, schedule: Q01DX009 (ip), vehicle: saline
[3] = dose: 100.0 mg/kg/injection, schedule: Q01DX009 (ip), vehicle: saline
[4] = dose: 100.0 mg/kg/injection, schedule: Q04DX003 (ip), vehicle: saline
[5] = dose: 200.0 mg/kg/injection, schedule: Q01DX009 (ip), vehicle: saline
[6] = dose: 200.0 mg/kg/injection, schedule: Q04DX003 (ip), vehicle: saline
[7] = dose: 400.0 mg/kg/injection, schedule: Q04DX003 (ip), vehicle: saline
[8] = dose: 100.0 mg/kg/injection, schedule: Q01DX001 (ip), vehicle: Klucel (hydroxypropylcellulose) (HPC)
[9] = dose: 100.0 mg/kg/injection, schedule: Q01DX001 (ip), vehicle: saline
[10] = dose: 200.0 mg/kg/injection, schedule: Q01DX001 (ip), vehicle: saline
[11] = dose: 400.0 mg/kg/injection, schedule: Q01DX001 (ip), vehicle: saline
[12] = dose: 100.0 mg/kg/injection, schedule: Q01DX009 (ip), vehicle: saline with Tween-80
[13] = dose: 100.0 mg/kg/injection, schedule: Q04DX003 (ip), vehicle: saline with Tween-80
[14] = dose: 200.0 mg/kg/injection, schedule: Q01DX009 (ip), vehicle: saline with Tween-80
[15] = dose: 200.0 mg/kg/injection, schedule: Q04DX003 (ip), vehicle: saline with Tween-80
[16] = dose: 400.0 mg/kg/injection, schedule: Q01DX009 (ip), vehicle: saline with Tween-80
[17] = dose: 400.0 mg/kg/injection, schedule: Q04DX003 (ip), vehicle: saline with Tween-80
[18] = dose: 100.0 mg/kg/injection, schedule: Q01DX009 (ip), vehicle: Klucel (hydroxypropylcellulose) (HPC)
[19] = dose: 100.0 mg/kg/injection, schedule: Q04DX003 (ip), vehicle: Klucel (hydroxypropylcellulose) (HPC)
[20] = dose: 200.0 mg/kg/injection, schedule: Q01DX009 (ip), vehicle: Klucel (hydroxypropylcellulose) (HPC)
[21] = dose: 200.0 mg/kg/injection, schedule: Q04DX003 (ip), vehicle: Klucel (hydroxypropylcellulose) (HPC)
[22] = dose: 400.0 mg/kg/injection, schedule: Q01DX009 (ip), vehicle: Klucel (hydroxypropylcellulose) (HPC)
[23] = dose: 400.0 mg/kg/injection, schedule: Q04DX003 (ip), vehicle: Klucel (hydroxypropylcellulose) (HPC)
[24] = dose: 400.0 mg/kg/injection, schedule: Q04DX002 (ip), vehicle: saline with Tween-80

Measured: T/C

Nc1ccc2ncccc2c1
inactive: [1] 97 % of control | [2] 93 % of control | [3] 105 % of control and 90 % of control | dose: 100.0 mg/kg/injection, schedule: Q04DX002 (ip), vehicle: alcohol 96 % of control | [4] 94 % of control | [5] 90 % of control | dose: 200.0 mg/kg/injection, schedule: Q04DX002 (ip), vehicle: alcohol 101 % of control | [6] 96 % of control | dose: 400.0 mg/kg/injection, schedule: Q04DX002 (ip), vehicle: alcohol 109 % of control | [7] 107 % of control

O=CC(O)C(O)C(O)CO (configuration not stated) (tested in a mixture with another compound)
inactive: [8] 94 % of control | dose: 200.0 mg/kg/injection, schedule: Q01DX001 (ip), vehicle: Klucel (hydroxypropylcellulose) (HPC) 88 % of control | dose: 400.0 mg/kg/injection, schedule: Q01DX001 (ip), vehicle: Klucel (hydroxypropylcellulose) (HPC) 88 % of control

COc1ccc(/C=C/C(=O)c2ccc3c(c2)OCO3)cc1O
inactive: [2] 100 % of control | [3] 93 % of control | [4] 93 % of control | [5] 100 % of control | [6] 97 % of control | dose: 300.0 mg/kg/injection, schedule: Q01DX009 (ip), vehicle: saline 120 % of control | [7] 87 % of control

CC1CCCN(N=Nc2ccc(Br)cc2-c2nc(N)c3cc(Br)ccc3n2)C1 (configuration not stated)
inactive: dose: 25.0 mg/kg/injection, schedule: Q01DX001 (ip), vehicle: Klucel (hydroxypropylcellulose) (HPC) 97 % of control | dose: 50.0 mg/kg/injection, schedule: Q01DX001 (ip), vehicle: Klucel (hydroxypropylcellulose) (HPC) 105 % of control | [8] 102 % of control

Cc1c(Br)c(=O)[nH]c2c(C)cccc12
inactive: [9] 98 % of control | [10] 98 % of control | [11] 96 % of control

C=CCOC(=O)OCc1ccccc1
inactive: dose: 222.0 mg/kg/injection, schedule: Q01DX Z (ip), vehicle: methylcellulose (MC) 92 % of control | dose: 333.0 mg/kg/injection, schedule: Q01DX Z (ip), vehicle: methylcellulose (MC) 89 % of control

Cc1cc(NCC(=O)NN)ccc1Cl
inactive: dose: 50.0 mg/kg/injection, schedule: Q04DX002 (ip), vehicle: Klucel (hydroxypropylcellulose) (HPC) 103 % of control | dose: 100.0 mg/kg/injection, schedule: Q04DX002 (ip), vehicle: Klucel (hydroxypropylcellulose) (HPC) 104 % of control and 114 % of control | dose: 200.0 mg/kg/injection, schedule: Q04DX002 (ip), vehicle: Klucel (hydroxypropylcellulose) (HPC) 86 % of control

O=C(Nc1ccccc1)c1cc(Cl)ccc1O
inactive: [12] 95 % of control | [13] 86 % of control | [14] 95 % of control | [15] 94 % of control | [16] 95 % of control | [17] 87 % of control

CN=C(Nc1ccccc1)SC
inactive: [1] 92 % of control | dose: 25.0 mg/kg/injection, schedule: Q04DX003 (ip), vehicle: saline 94 % of control | [2] 105 % of control | dose: 50.0 mg/kg/injection, schedule: Q04DX003 (ip), vehicle: saline 97 % of control | [9] 104 % of control | [3] 105 % of control | [4] 97 % of control

O=C(O)C[CH2][Ge](=[O])[O][Ge](=[O])[CH2]CC(=O)O
inactive: dose: 100.0 mg/kg/injection, schedule: Q04DX002 (ip), vehicle: saline 100 % of control | dose: 200.0 mg/kg/injection, schedule: Q04DX002 (ip), vehicle: saline 103 % of control | dose: 400.0 mg/kg/injection, schedule: Q04DX002 (ip), vehicle: saline 103 % of control

CC(C)CCCC(C)CC1CC(C)CCC1O (configuration not stated)
inactive: [18] 93 % of control | [19] 98 % of control | [20] 92 % of control | [21] 94 % of control | [22] 101 % of control | [23] 96 % of control

CCOC=Nc1cc[n+]([O-])nc1C
inactive: dose: 43.75 mg/kg/injection, schedule: Q04DX002 (ip), vehicle: saline 104 % of control | dose: 87.5 mg/kg/injection, schedule: Q04DX002 (ip), vehicle: saline 104 % of control | dose: 175.0 mg/kg/injection, schedule: Q04DX002 (ip), vehicle: saline 104 % of control

C(=Nc1ccc2c(c1)Cc1ccccc1-2)c1ccnc2ccccc12
inactive: [18] 97 % of control | [19] 92 % of control | [20] 100 % of control | [21] 90 % of control | [22] 97 % of control | [23] 94 % of control

CC1CC(C)(C)NC(=S)O1 (configuration not stated)
inactive: dose: 15.0 mg/kg/injection, schedule: Q01DX001 (ip), vehicle: carboxymethylcellulose (CMC) 101 % of control | dose: 30.0 mg/kg/injection, schedule: Q01DX001 (ip), vehicle: carboxymethylcellulose (CMC) 102 % of control

CC(=O)Nc1cc2c(cc1Cl)-c1ccc(F)cc1C2=O
inactive: [19] 97 % of control | [21] 103 % of control | [23] 105 % of control

O=[N+]([O-])c1ccc(-c2nnc(-c3ccccc3O)o2)cc1
inactive: dose: 50.0 mg/kg/injection, schedule: Q04DX002 (ip), vehicle: saline with Tween-80 92 % of control | dose: 100.0 mg/kg/injection, schedule: Q04DX002 (ip), vehicle: saline with Tween-80 89 % of control | dose: 200.0 mg/kg/injection, schedule: Q04DX002 (ip), vehicle: saline with Tween-80 89 % of control | [24] 89 % of control

CC(=O)CSc1nc2nccnc2[nH]1
inactive: dose: 25.0 mg/kg/injection, schedule: Q01DX009 (ip), vehicle: saline with Tween-80 110 % of control | dose: 50.0 mg/kg/injection, schedule: Q01DX009 (ip), vehicle: saline with Tween-80 110 % of control | [12] 104 % of control | [14] 104 % of control | [16] 107 % of control

CCOC(=O)N1C=Cn2c(cnc2C)C1O (configuration not stated)
inactive: [2] 94 % of control | [3] 94 % of control | dose: 100.0 mg/kg/injection, schedule: Q01DX009 (ip), vehicle: water 102 % of control | [4] 102 % of control | [5] 100 % of control and 91 % of control | dose: 200.0 mg/kg/injection, schedule: Q01DX009 (ip), vehicle: water 90 % of control | [6] 109 % of control | dose: 400.0 mg/kg/injection, schedule: Q01DX009 (ip), vehicle: water 93 % of control | [7] 107 % of control

CCC1(NS(=O)(=O)c2ccc(NC(C)=O)cc2)C(=O)N(C)C(=O)N(C)C1=O
inactive: [9] 95 % of control | [10] 91 % of control | [11] 91 % of control

C[N+]1(C2CCC3CCC2C3O)CCCCC1 (configuration not stated)
inactive: [2] 100 % of control | [3] 110 % of control | [4] 101 % of control | [5] 110 % of control | [6] 101 % of control

O=C1CCc2ccccc2/C1=C\c1ccccc1
inactive: [13] 98 % of control | [15] 97 % of control | [17] 92 % of control

C=CCN(CC=C)c1ncnc(N(C)C)n1
inactive: dose: 25.6 mg/kg/injection, schedule: Q04DX002 (ip), vehicle: saline with Tween-80 93 % of control | dose: 64.0 mg/kg/injection, schedule: Q04DX002 (ip), vehicle: saline with Tween-80 101 % of control | dose: 160.0 mg/kg/injection, schedule: Q04DX002 (ip), vehicle: saline with Tween-80 101 % of control | [24] 97 % of control

CC(=O)Nc1ccc(Cc2ccc3[nH]c(=O)cc(C)c3c2)cc1
inactive: dose: 100.0 mg/kg/injection, schedule: Q01DX001 (ip), vehicle: carboxymethylcellulose (CMC) 96 % of control | dose: 200.0 mg/kg/injection, schedule: Q01DX001 (ip), vehicle: carboxymethylcellulose (CMC) 98 % of control | dose: 400.0 mg/kg/injection, schedule: Q01DX001 (ip), vehicle: carboxymethylcellulose (CMC) 101 % of control

NC(=NCc1ccccc1)c1ccc(NC(=O)c2ccc(C(=O)Nc3ccc(C(N)=NCc4ccccc4)cc3)cc2)cc1
inactive: dose: 7.0 mg/kg/injection, schedule: Q01DX Z (ip), vehicle: water 113 % of control

CCCCCCCC[Se]CCCCCCCC
inactive: [13] 111 % of control | [15] 103 % of control | [17] 103 % of control
